Laboratory results: US20060115571A1, “Functional foods/drinks containing antiallergic component” (priority 2002, published 2006)

Assay: stability during the process of preparing the hard candy
Settings: powder of an extract of "Benifuki" made into hard candy
Description: Using a powder of an extract of “Benifuki”, a hard candy was prepared. Methylcatechin was contained at 2.7% in the powder of the extract, so one hard candy was designed to contain 3 mg of methylcatechin.

O=C1C[C@@H]2OCC=C3CN4CC[C@]56c7ccccc7N1[C@H]5[C@H]2[C@H]3C[C@H]46 [Strychnine, strychnine]
stability during the process of preparing the hard candy: stable
